In patent US20220388979A1, “QUINOLINE DERIVATIVES AS PROTEIN KINASE INHIBITORS” (B.C.I. PHARMA, priority 2019, published 2022) one finds inhibition data, which are given here for 26 compounds.

Conditions in all cases: at 50 nM, in duplicate
Experiment [1] has as its target CSF1R (Homo sapiens, UniProt P07333). The experiment in a line: Z'-Lyte biochemical kinase assay (SelectScreen), CSF1R. As for the experimental part: (§1) A biochemical assay was performed in order to measure the protein kinase inhibition. The kinase binding assays were performed against different kinases using the SelectScreen Biochemical Kinase Profiling Service® platform (Thermo Fisher Scientific). For all kinases, the Z′-Lyte® biochemical kinase assay technology was used. Inhibitions were measured at 50 nM in duplicate for each compound and are reported in percentage.

In experiment [2] the target is T1, FLT3 (Homo sapiens, UniProt P36888).
T1 sequence (P36888 27-993): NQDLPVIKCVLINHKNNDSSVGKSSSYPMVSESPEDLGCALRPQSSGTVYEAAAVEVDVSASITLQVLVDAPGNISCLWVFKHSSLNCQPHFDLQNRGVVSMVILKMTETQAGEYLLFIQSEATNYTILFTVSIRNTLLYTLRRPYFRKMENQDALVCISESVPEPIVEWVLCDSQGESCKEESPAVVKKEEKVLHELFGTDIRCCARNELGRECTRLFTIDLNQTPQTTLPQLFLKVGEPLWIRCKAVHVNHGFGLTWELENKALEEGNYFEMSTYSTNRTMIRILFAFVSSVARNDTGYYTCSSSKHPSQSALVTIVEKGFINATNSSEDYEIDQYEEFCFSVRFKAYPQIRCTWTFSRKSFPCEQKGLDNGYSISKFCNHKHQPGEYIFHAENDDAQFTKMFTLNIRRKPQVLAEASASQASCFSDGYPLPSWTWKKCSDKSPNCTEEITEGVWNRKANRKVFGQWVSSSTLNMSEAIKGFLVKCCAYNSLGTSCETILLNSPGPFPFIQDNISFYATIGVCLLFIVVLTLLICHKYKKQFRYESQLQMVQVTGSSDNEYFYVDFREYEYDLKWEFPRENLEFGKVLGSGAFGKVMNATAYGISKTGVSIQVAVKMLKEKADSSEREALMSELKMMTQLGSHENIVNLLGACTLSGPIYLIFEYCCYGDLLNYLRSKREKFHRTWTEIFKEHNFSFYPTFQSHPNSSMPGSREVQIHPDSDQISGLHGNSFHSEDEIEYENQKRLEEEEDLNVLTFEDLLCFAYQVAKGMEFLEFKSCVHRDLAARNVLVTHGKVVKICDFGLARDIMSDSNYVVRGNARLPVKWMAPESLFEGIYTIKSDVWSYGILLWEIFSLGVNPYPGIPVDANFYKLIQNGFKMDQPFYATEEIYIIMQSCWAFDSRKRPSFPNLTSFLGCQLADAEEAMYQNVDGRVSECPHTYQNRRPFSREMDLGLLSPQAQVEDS
The experiment in a line: Z'-Lyte biochemical kinase assay (SelectScreen), FLT3. As for the experimental part:
as §1

Experiment [3] has as its target Kit (Homo sapiens, UniProt P10721). The experiment in a line: Z'-Lyte biochemical kinase assay (SelectScreen), Kit. As for the experimental part:
as §1

In experiment [4] the target is PDGFRA (Homo sapiens, UniProt P16234). The experiment in a line: Z'-Lyte biochemical kinase assay (SelectScreen), PDGFRA. As for the experimental part:
as §1

Experiment [5] has as its target PDGFRB (Homo sapiens, UniProt P09619). The experiment in a line: Z'-Lyte biochemical kinase assay (SelectScreen), PDGFRB. As for the experimental part: as §1

In general, inhibition refers to the relative decrease from the control value, in per cent.

Chain of PDGFRA (P16234 24-1089): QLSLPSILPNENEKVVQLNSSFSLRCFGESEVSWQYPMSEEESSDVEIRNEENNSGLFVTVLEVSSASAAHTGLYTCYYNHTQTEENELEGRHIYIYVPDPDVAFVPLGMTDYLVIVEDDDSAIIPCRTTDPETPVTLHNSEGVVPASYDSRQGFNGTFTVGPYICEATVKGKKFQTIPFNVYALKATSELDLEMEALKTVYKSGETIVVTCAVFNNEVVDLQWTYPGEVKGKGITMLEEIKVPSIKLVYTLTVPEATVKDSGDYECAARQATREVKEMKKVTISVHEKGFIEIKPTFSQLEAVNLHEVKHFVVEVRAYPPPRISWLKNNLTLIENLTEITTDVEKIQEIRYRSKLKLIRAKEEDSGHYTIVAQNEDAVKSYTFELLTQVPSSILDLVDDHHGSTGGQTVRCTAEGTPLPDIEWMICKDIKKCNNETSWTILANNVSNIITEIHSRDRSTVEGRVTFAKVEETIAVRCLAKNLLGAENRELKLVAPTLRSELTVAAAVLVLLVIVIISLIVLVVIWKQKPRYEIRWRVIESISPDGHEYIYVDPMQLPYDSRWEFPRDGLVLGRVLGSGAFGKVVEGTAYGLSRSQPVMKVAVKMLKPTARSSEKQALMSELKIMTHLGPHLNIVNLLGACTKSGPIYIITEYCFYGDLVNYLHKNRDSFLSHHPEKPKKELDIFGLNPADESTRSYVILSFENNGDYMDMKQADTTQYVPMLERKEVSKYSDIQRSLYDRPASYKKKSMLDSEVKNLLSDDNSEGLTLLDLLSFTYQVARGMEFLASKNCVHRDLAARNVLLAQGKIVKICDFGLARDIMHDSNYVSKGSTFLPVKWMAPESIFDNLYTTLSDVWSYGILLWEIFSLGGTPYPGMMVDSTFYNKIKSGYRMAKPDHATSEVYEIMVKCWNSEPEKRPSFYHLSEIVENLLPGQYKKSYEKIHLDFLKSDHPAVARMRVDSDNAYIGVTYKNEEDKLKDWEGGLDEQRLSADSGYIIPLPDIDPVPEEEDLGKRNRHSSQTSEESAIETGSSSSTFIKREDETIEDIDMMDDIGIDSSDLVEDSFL
Chain of CSF1R (P07333 20-972): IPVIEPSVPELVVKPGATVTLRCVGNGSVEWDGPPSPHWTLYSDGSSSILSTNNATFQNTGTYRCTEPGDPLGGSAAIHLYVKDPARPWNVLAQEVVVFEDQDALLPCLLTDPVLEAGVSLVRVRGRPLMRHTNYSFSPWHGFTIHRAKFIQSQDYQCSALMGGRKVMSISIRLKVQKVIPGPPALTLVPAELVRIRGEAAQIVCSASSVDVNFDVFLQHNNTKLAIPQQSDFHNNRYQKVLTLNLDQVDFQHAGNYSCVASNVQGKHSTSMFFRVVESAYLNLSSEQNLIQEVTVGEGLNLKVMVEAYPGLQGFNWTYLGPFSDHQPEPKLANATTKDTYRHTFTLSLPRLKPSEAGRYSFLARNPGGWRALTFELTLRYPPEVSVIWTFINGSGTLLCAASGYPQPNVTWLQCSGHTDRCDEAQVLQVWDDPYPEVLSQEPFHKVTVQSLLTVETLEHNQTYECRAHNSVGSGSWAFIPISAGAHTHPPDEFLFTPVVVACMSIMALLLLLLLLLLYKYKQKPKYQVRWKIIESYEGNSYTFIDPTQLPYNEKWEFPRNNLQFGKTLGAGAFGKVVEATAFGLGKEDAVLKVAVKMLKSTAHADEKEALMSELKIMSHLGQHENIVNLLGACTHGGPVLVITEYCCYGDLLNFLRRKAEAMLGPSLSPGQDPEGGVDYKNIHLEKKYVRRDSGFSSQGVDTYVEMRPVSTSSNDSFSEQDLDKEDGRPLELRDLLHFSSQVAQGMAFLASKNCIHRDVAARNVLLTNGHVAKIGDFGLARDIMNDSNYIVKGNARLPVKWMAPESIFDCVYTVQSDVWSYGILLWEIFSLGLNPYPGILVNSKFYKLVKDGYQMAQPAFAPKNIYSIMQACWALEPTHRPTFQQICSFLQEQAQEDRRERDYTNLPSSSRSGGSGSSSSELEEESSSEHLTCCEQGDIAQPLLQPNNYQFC
Chain of PDGFRB (P09619 33-1106): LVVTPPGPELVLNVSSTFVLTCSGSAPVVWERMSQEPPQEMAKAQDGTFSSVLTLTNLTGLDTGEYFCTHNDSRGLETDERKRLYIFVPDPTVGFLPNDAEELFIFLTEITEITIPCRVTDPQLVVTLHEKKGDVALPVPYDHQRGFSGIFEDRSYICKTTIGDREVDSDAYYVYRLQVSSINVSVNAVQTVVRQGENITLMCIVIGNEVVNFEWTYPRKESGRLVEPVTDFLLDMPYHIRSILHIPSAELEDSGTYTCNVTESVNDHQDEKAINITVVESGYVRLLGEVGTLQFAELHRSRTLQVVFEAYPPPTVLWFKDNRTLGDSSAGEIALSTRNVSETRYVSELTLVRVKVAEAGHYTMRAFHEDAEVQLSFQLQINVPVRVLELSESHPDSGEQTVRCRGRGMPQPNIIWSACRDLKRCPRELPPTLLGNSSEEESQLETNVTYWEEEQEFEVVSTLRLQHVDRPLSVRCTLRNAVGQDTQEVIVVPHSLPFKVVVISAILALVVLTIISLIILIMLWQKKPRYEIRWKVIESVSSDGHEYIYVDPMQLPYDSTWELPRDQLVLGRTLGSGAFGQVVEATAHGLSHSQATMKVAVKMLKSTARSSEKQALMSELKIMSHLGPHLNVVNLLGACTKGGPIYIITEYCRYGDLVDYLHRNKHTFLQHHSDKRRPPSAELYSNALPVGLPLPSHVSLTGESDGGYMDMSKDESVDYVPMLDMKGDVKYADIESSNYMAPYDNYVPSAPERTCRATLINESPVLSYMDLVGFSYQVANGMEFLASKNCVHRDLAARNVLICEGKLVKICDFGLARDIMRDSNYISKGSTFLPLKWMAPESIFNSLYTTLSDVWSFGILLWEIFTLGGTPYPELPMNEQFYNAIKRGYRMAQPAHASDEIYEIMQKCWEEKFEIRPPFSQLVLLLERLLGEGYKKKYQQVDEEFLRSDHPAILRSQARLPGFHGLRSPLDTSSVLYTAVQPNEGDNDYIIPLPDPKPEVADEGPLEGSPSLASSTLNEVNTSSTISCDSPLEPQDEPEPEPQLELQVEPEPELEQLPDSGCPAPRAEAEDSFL
Chain of Kit (P10721 26-976): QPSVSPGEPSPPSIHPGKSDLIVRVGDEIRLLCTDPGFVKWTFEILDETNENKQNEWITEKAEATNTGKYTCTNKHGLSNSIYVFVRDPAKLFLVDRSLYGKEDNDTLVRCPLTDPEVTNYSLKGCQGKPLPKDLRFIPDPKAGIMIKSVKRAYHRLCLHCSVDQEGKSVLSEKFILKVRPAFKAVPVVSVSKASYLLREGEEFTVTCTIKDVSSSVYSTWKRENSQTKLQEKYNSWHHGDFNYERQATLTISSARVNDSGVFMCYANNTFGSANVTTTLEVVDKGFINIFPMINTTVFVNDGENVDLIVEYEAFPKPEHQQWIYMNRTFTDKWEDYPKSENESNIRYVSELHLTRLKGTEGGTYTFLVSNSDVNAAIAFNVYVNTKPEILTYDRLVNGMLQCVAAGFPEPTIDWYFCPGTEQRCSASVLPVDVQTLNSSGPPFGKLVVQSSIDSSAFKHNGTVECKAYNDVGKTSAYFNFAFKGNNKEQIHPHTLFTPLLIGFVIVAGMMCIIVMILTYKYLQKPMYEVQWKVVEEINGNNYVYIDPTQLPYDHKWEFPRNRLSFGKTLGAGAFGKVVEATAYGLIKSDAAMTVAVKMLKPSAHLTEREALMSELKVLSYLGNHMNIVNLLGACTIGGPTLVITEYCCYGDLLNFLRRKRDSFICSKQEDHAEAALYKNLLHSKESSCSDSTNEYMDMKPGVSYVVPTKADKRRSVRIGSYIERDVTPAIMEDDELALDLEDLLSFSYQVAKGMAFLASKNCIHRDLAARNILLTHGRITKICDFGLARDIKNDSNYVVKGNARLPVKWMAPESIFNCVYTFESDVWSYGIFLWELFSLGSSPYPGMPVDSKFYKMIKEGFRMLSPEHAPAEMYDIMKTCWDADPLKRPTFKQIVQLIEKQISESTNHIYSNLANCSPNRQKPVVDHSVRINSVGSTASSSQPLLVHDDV

As for `COc1ccccc1CNC(=O)c1cc(F)cc(Oc2ccnc3cc(OC)c(OC)cc23)c1` [compound 89], the inhibition at 0.05 µM in experiment [1] is 86%; in experiment [2], 36%; in experiment [3], 21%; in experiment [4], 49%; in experiment [5] it was 48%.
For `COc1ccc2c(Oc3cccc(C(=O)NCc4cccc(F)c4)c3C)ccnc2c1` [compound 33], in that order: 78%, 16%, 4%, 10% and 14%.
For `Cc1c(Oc2ccnc3cc(N(C)C)ccc23)cccc1C(=O)NCc1cccc(F)c1` [compound 152], the inhibition at 0.05 µM came to 77% in experiment [1]; 13% in experiment [2]; 3% in experiment [3]; 10% in experiment [4]; 25% in experiment [5].
The corresponding values for `COc1cc2nccc(Oc3cccc(C(=O)NCc4ccccc4)c3)c2cc1OC` [compound 84] are 91%, 37%, 34%, 16% and 54%.
Take `COc1ccc2c(Oc3cccc(C(=O)NCc4ccncc4)c3C)ccnc2c1` [Compounds 32]: the inhibition at 0.05 µM came out at 96% in experiment [1]; 8% in experiment [2]; 2% in experiment [3]; 2% in experiment [4]; 6% in experiment [5].
As for `CNc1ccc2c(Oc3cccc(C(=O)NCc4cccc(F)c4)c3C)ccnc2c1` [compound 151], the inhibition at 0.05 µM came out at 79% in experiment [1]; 0% in experiment [2]; 4% in experiment [3]; 9% in experiment [4]; 21% in experiment [5].
Regarding `CNc1ccc2c(Oc3cccc(C(=O)NCc4ccncc4)c3C)ccnc2c1` [compound 148], the inhibition at 0.05 µM was 75% in experiment [1]; 7% in experiment [2]; 0% in experiment [3]; 4% in experiment [4]; 12% in experiment [5].
For `COc1ccc2c(Oc3cc(C(=O)NCc4ccncc4)ccc3F)ccnc2c1` [compound 98], in that order: 79%, 6%, 5%, 6% and 23%.
The corresponding values for `O=C(NCc1ccncc1)c1cccc(Oc2ccnc3ccccc23)c1` [compound 75] are 79%, 16%, 20%, -1% and 10%.
Turning to `CN(C)c1ccc2c(Oc3cccc(C(=O)NCc4ccncc4)c3)ccnc2c1` [compound 140], the inhibition at 0.05 µM turned out to be 83% in experiment [1]; 8% in experiment [2]; 3% in experiment [3]; 11% in experiment [4]; 19% in experiment [5].
For `O=C(NCc1cncc(F)c1)c1cccc(Oc2ccnc3ccccc23)c1` [compound 17], in that order: 83%, -4%, 14%, 15% and 12%.
For `COc1ccccc1CNC(=O)c1ccc(F)c(Oc2ccnc3cc(OC)c(OC)cc23)c1` [compound 92], in that order: 94%, 50%, 13%, 24% and 60%.
For `COc1ccccc1CNC(=O)c1ccc(F)c(Oc2ccnc3ccccc23)c1` [compound 99], in that order: 75%, 26%, 0%, 17% and 20%.
Take `COc1ccc2c(Oc3cccc(C(=O)NCc4ccccc4)c3)ccnc2c1` [compound 85]: the inhibition at 0.05 µM is 85% in experiment [1]; 26% in experiment [2]; 31% in experiment [3]; 22% in experiment [4]; 28% in experiment [5].
For `COc1cc2nccc(Oc3cc(F)cc(C(=O)N[C@H](C)C4CCCCC4)c3)c2cc1OC` [compound 90], in that order: 77%, 26%, 9%, 28% and 28%.
For `CNc1ccc2c(Oc3cc(C(=O)NCc4ccncc4)ccc3F)ccnc2c1` [compound 142], in that order: 61%, 9%, 13%, 11% and 9%.
Turning to `COc1cc2nccc(Oc3cccc(C(=O)NCCc4ccccc4)c3)c2cc1OC` [compound 25], the inhibition at 0.05 µM turned out to be 95% in experiment [1]; 48% in experiment [2]; 32% in experiment [3]; 27% in experiment [4]; 39% in experiment [5].
For `COc1ccccc1CNC(=O)c1cccc(Oc2ccnc3ccccc23)c1` [compound 7], in that order: 85%, 14%, 20%, 16% and 22%.
The corresponding values for `Cc1c(Oc2ccnc3cc(N4CCC4)ccc23)cccc1C(=O)NCc1ccncc1` [compound 150] are 81%, 12%, 3%, 8% and 15%.
For `COc1cc2nccc(Oc3cccc(C(=O)N[C@H](C)c4ccccc4)c3)c2cc1OC` [compound 24], in that order: 97%, 44%, 29%, 24% and 34%.
As for `COc1cc2nccc(Oc3cc(C(=O)NCc4cccc(F)c4)ccc3F)c2cc1OC` [compound 94], the inhibition at 0.05 µM in experiment [1] stood at 93%; in experiment [2] it was 27%; in experiment [3], 32%; in experiment [4], 30%; in experiment [5], 45%.
Turning to `COc1cc2nccc(Oc3cccc(C(=O)NCC4CCCCC4)c3)c2cc1OC` [compound 27], the inhibition at 0.05 µM came out at 93% in experiment [1]; 39% in experiment [2]; 26% in experiment [3]; 23% in experiment [4]; 44% in experiment [5].
For `O=C(NCc1cccnc1)c1cccc(Oc2ccnc3ccccc23)c1` [compound 74], in that order: 83%, 25%, 20%, 7% and 12%.
`O=C(NCc1ccc(F)cc1)c1cccc(Oc2ccnc3ccccc23)c1` [compound 16]: the inhibition at 0.05 µM in experiment [1] was 81%; in experiment [2] it was 7%; in experiment [3] it was 15%; in experiment [4] it was 23%; in experiment [5] it was 24%.
For `O=C(NCc1cccc(F)c1)c1ccc(F)c(Oc2ccnc3ccccc23)c1` [compound 101], in that order: 81%, 37%, 27%, 25% and 40%.
Turning to `O=C(NCc1cccc(F)c1)c1cccc(Oc2ccnc3ccccc23)c1` [compound 10], the inhibition at 0.05 µM is 71% in experiment [1]; 18% in experiment [2]; 11% in experiment [3]; 17% in experiment [4]; 24% in experiment [5].
